Here are results for one compound from patent US8703106B2, “Chlorine dioxide treatment for biological tissue” (priority 2009, dated 2014).

One series concerns mixed PA/MRSA biofilm. Put plainly: Biofilm kill in protein-rich (FBS) environment (Example 3). It counts as cell-based, Pseudomonas aeruginosa and Staphylococcus aureus. The conditions noted are these: for Log Reduction in Organism Count: MRSA + PA. The protocol: (§1) Chlorine dioxide efficacy against biofilm in protein-rich environment A series of experiments were conducted to determine the effect of FBS on the kill of PA. MRSA and mixture PA/MRSA biofilms. Biofilms were grown as described in Example 1, Disks were immersed in 25 ml of FBS solution at double the target FBS concentration, and to that was added 25 ml of chlorine dioxide solution at double the target chlorine dioxide concentration. After the desired contact time, disks were removed from the treatment solutions, neutralized, and plated as described above.
(§2) Dosage is given both as the nominal dose based upon the initial chlorine dioxide concentration, and the actual dosage as estimated from the initial chlorine dioxide concentration and the decay relationships described above.
(§3) Columns 3-6 are measured data; columns 7-11 are calculated data. For K2 having a positive sign (such as Samples 20-21), it was assumed that there was insufficient FBS present to cause a material loss of chlorine dioxide. Therefore, for such samples, it was assumed that chlorine dioxide was unchanged over the time of the experiment FIG. 4 is a graph of the results.

For another series, the system named is PA biofilm. The description is as above. The class given is cell-based, Pseudomonas aeruginosa. The conditions noted are these: for Log Reduction in Organism Count: PA. The protocol:
as §1, §2, §3

Series [1] is described as follows: Chlorine dioxide loss in fetal blood serum (FBS) solution. The class given is physicochemical. The protocol: A series of experiments were conducted to estimate and quantify the effect of blood serum on chlorine dioxide concentration. Solutions of chlorine dioxide and fetal blood serum (FBS) were prepared at different concentrations of chlorine dioxide and FBS, and the chlorine dioxide concentration was tracked using a Spectral Physics UV/Visible spectrophotometer with a direct insertion probe (1 mm path length).
The initial chlorine dioxide concentration was measured using a Hach Model 2400 UV/Vis spectrophotometer. A UV/Vis scan was then measured over the wavelength range of about […] using the direct insertion probe, and this was used to calculate the initial absorbance of the solution. FBS was then added, and UV/Vis scans were run periodically thereafter. The area of the chlorine dioxide absorbance peak was calculated for each scan, and the relative chlorine dioxide concentration at each time was calculated by dividing the area at each time point by the peak area of the initial scan (prior to FBS addition). Relative chlorine dioxide concentration was plotted versus time for each set of chlorine dioxide and FBS concentrations. […] The exponent K2 in the equation is an estimate of the decay rate of chlorine dioxide in the FBS solution. The weight ratio of FBS to chlorine dioxide was calculated by dividing, the mass of FBS added to the solution by the mass of chlorine dioxide in the solution.
as §2, §3

In a further series the test system is bacteria in wounds. Put plainly: Pig wound model, chlorine dioxide with sonication (Example 5). The class given is in vivo. To be noted: 400 ppm solution, 8 x 15 min, plus three 4 min sonications at about 20 kHz, 40% duty cycle. The procedure: An experiment was performed to assess the efficacy of a combination therapy of chlorine dioxide administration and sonication on bacterial levels in wounds. The animal model was a pig. Sixteen wounds were introduced and inoculated with bacteria as described in Example 6. On Day 2, treatment was administered. There were control wounds that were not treated with either chlorine dioxide or ultrasound. Test wounds were treated with ultrasonic energy for 4 minutes, using a frequency of about 20 kHz, a 40% duty cycle and a range of power intensities up to 3.5 W/cm^2; each test wound received a total of three sonication treatments. Test wounds were treated with a 400 ppm chlorine dioxide solution applied to each wound in 8 separate, contiguous applications of 15 minutes duration each (total of 120 minutes of exposure to 400 ppm chlorine dioxide) and each application used a fresh specimen of the solution. Each treated wound received a total of three×4 minute sonication over the course of the 2 hours of chlorine dioxide treatment.
Wounds were biopsied after treatment as described in Example 4.

For the compound `[O][Cl+][O-]` [ClO2, chlorine dioxide], the “Log Reduction in Organism Count” value in the series with mixed PA/MRSA biofilm (Sample 17, FBS 131 mg/mg ClO2, 15.0 min, initial 191 ppm, nominal 2865, corrected 2236 ppm-min) was 8.2 log; in the series with mixed PA/MRSA biofilm (Sample 18, FBS 131 mg/mg ClO2, 40.0 min, initial 191 ppm, nominal 7640, corrected 5559 ppm-min), 8.2 log; in the series with mixed PA/MRSA biofilm (Sample 19, FBS 104 mg/mg ClO2, 15.0 min, initial 240 ppm, nominal and corrected 3600 ppm-min), 8.2 log; with mixed PA/MRSA biofilm (Sample 20, FBS 104 mg/mg ClO2, 30.0 min, initial 240 ppm, nominal and corrected 7200 ppm-min), 8.2 log; in the series with mixed PA/MRSA biofilm (Sample 21, FBS 104 mg/mg ClO2, 60.0 min, initial 240 ppm, nominal and corrected 14400 ppm-min) it was 8.2 log; in the series on PA biofilm (Sample 27, FBS 131 mg/mg ClO2, 15.0 min, initial 191 ppm, nominal 2865, corrected 2236 ppm-min), 7.1 log. Besides, the “Log Reduction in Organism Count” value is listed as 7.1 log in the series on PA biofilm (Sample 28, FBS 131 mg/mg ClO2, 40.0 min, initial 191 ppm, nominal 7640, corrected 5559 ppm-min); 7.1 log in the series with PA biofilm (Sample 29, FBS 104 mg/mg ClO2, 15.0 min, initial 240 ppm, nominal and corrected 3600 ppm-min); 7.1 log with PA biofilm (Sample 30, FBS 104 mg/mg ClO2, 30.0 min, initial 240 ppm, nominal and corrected 7200 ppm-min); 7.1 log with PA biofilm (Sample 31, FBS 104 mg/mg ClO2, 60.0 min, initial 240 ppm, nominal and corrected 14400 ppm-min). Besides, the “corrected dose rate resulting in complete kill” value in the series on mixed PA/MRSA biofilm (mixed PA/MRSA biofilm, with FBS) was at least 2000 ppm-rain; in the series with PA biofilm (PA biofilm, with FBS), at least 2000 ppm-rain. In addition, the “Final ClO2 Concentration” value is listed as 240 ppm in series [1] (104 mg FBS/mg ClO2, initial 240 ppm, 15.0 min, assumed unchanged); 240 ppm in series [1] (104 mg FBS/mg ClO2, initial 240 ppm, 30.0 min, assumed unchanged); 240 ppm in series [1] (104 mg FBS/mg ClO2, initial 240 ppm, 60.0 min, assumed unchanged); 107 ppm in series [1] (131 mg FBS/mg ClO2, initial 191 ppm, 15.0 min, calculated); 87 ppm in series [1] (131 mg FBS/mg ClO2, initial 191 ppm, 40.0 min, calculated). Further, the “Decay rate, K2” value is on record as 0.0344 in series [1] (104 mg FBS/mg ClO2, initial 240 ppm, calculated, positive K2 taken as no loss) and −0.2134 in series [1] (131 mg FBS/mg ClO2, initial 191 ppm, calculated from K2=-0.00927(FBS/ClO2)+1). The “bacterial counts in test wounds” value with bacteria in wounds (as a function of power intensity up to 3.5 W/cm^2) is recorded as “decrease significantly (multiple log reductions)”. Moreover, the “bacterial kill in test wounds” value in the series on bacteria in wounds (at 3.5 W/cm^2) is “substantially complete log kill”.
